Assay results reported in article PMC11420776 (RSC Advances, 2024).

Columns and labels:
[1] = system: ACHN (renal cancer); assay: NCI 60-cell one-dose antiproliferative screen; assay type: cell-based, human; conditions: one dose 10 μM
[2] = system: 786-0 (renal cancer); assay: NCI 60-cell one-dose antiproliferative screen; assay type: cell-based, human; conditions: one dose 10 μM
[3] = system: NCI-H460 (NSC lung cancer); assay: NCI 60-cell one-dose antiproliferative screen; assay type: cell-based, human; conditions: one dose 10 μM
[4] = system: NCI/ADR-RES (ovarian cancer); assay: NCI 60-cell one-dose antiproliferative screen; assay type: cell-based, human; conditions: one dose 10 μM
[5] = system: SK-MEL-2 (melanoma); assay: NCI 60-cell one-dose antiproliferative screen; assay type: cell-based, human; conditions: one dose 10 μM
[6] = system: NCI-H226 (NSC lung cancer); assay: NCI 60-cell one-dose antiproliferative screen; assay type: cell-based, human; conditions: one dose 10 μM
[7] = system: UACC-257 (melanoma); assay: NCI 60-cell one-dose antiproliferative screen; assay type: cell-based, human; conditions: one dose 10 μM
[8] = system: SF-539 (CNS cancer); assay: NCI 60-cell one-dose antiproliferative screen; assay type: cell-based, human; conditions: one dose 10 μM
[9] = system: UACC-62 (melanoma); assay: NCI 60-cell one-dose antiproliferative screen; assay type: cell-based, human; conditions: one dose 10 μM
[10] = system: 60 human tumor cell lines; assay: NCI 60-cell one-dose antiproliferative screen, whole panel; assay type: cell-based
[11] = system: HOP-62 (NSC lung cancer); assay: NCI 60-cell one-dose antiproliferative screen; assay type: cell-based, human; conditions: one dose 10 μM
[12] = system: SK-OV-3 (ovarian cancer); assay: NCI 60-cell one-dose antiproliferative screen; assay type: cell-based, human; conditions: one dose 10 μM
[13] = system: EKVX (NSC lung cancer); assay: NCI 60-cell one-dose antiproliferative screen; assay type: cell-based, human; conditions: one dose 10 μM
[14] = system: MCF7 (breast cancer); assay: NCI 60-cell one-dose antiproliferative screen; assay type: cell-based, human; conditions: one dose 10 μM
[15] = system: CCRF-CEM (leukemia); assay: NCI 60-cell one-dose antiproliferative screen; assay type: cell-based, human; conditions: one dose 10 μM
[16] = system: TK-10 (renal cancer); assay: NCI 60-cell one-dose antiproliferative screen; assay type: cell-based, human; conditions: one dose 10 μM
[17] = system: PC-3 (prostate cancer); assay: NCI 60-cell one-dose antiproliferative screen; assay type: cell-based, human; conditions: one dose 10 μM
[18] = system: SN12C (renal cancer); assay: NCI 60-cell one-dose antiproliferative screen; assay type: cell-based, human; conditions: one dose 10 μM
[19] = system: SW-620 (colon cancer); assay: NCI 60-cell one-dose antiproliferative screen; assay type: cell-based, human; conditions: one dose 10 μM
[20] = system: A498 (renal cancer); assay: NCI 60-cell one-dose antiproliferative screen; assay type: cell-based, human; conditions: one dose 10 μM
[21] = system: NCI-H522 (NSC lung cancer); assay: NCI 60-cell one-dose antiproliferative screen; assay type: cell-based, human; conditions: one dose 10 μM
[22] = system: U251 (CNS cancer); assay: NCI 60-cell one-dose antiproliferative screen; assay type: cell-based, human; conditions: one dose 10 μM
[23] = system: UO-31 (renal cancer); assay: NCI 60-cell one-dose antiproliferative screen; assay type: cell-based, human; conditions: one dose 10 μM
[24] = system: M14 (melanoma); assay: NCI 60-cell one-dose antiproliferative screen; assay type: cell-based, human; conditions: one dose 10 μM
[25] = system: HCC-2998 (colon cancer); assay: NCI 60-cell one-dose antiproliferative screen; assay type: cell-based, human; conditions: one dose 10 μM
[26] = system: IGROV1 (ovarian cancer); assay: NCI 60-cell one-dose antiproliferative screen; assay type: cell-based, human; conditions: one dose 10 μM
[27] = system: HCT-15 (colon cancer); assay: NCI 60-cell one-dose antiproliferative screen; assay type: cell-based, human; conditions: one dose 10 μM
[28] = system: KM12 (colon cancer); assay: NCI 60-cell one-dose antiproliferative screen; assay type: cell-based, human; conditions: one dose 10 μM
[29] = system: HOP-92 (NSC lung cancer); assay: NCI 60-cell one-dose antiproliferative screen; assay type: cell-based, human; conditions: one dose 10 μM
[30] = system: NCI-H23 (NSC lung cancer); assay: NCI 60-cell one-dose antiproliferative screen; assay type: cell-based, human; conditions: one dose 10 μM
[31] = system: RXF 393 (renal cancer); assay: NCI 60-cell one-dose antiproliferative screen; assay type: cell-based, human; conditions: one dose 10 μM
[32] = system: OVCAR-8 (ovarian cancer); assay: NCI 60-cell one-dose antiproliferative screen; assay type: cell-based, human; conditions: one dose 10 μM
[33] = system: MDA-MB-468 (breast cancer); assay: NCI 60-cell one-dose antiproliferative screen; assay type: cell-based, human; conditions: one dose 10 μM
[34] = system: LOX IMIV (melanoma); assay: NCI 60-cell one-dose antiproliferative screen; assay type: cell-based, human; conditions: one dose 10 μM
[35] = system: SNB-75 (CNS cancer); assay: NCI 60-cell one-dose antiproliferative screen; assay type: cell-based, human; conditions: one dose 10 μM
[36] = system: OVCAR-4 (ovarian cancer); assay: NCI 60-cell one-dose antiproliferative screen; assay type: cell-based, human; conditions: one dose 10 μM
[37] = system: T-47D (breast cancer); assay: NCI 60-cell one-dose antiproliferative screen; assay type: cell-based, human; conditions: one dose 10 μM
[38] = system: OVCAR-5 (ovarian cancer); assay: NCI 60-cell one-dose antiproliferative screen; assay type: cell-based, human; conditions: one dose 10 μM
[39] = system: HS 578T (breast cancer); assay: NCI 60-cell one-dose antiproliferative screen; assay type: cell-based, human; conditions: one dose 10 μM
[40] = system: MALME-3M (melanoma); assay: NCI 60-cell one-dose antiproliferative screen; assay type: cell-based, human; conditions: one dose 10 μM
[41] = system: MDA-MB-435 (melanoma); assay: NCI 60-cell one-dose antiproliferative screen; assay type: cell-based, human; conditions: one dose 10 μM
[42] = system: HCT-116 (colon cancer); assay: NCI 60-cell one-dose antiproliferative screen; assay type: cell-based, human; conditions: one dose 10 μM
[43] = system: SK-MEL-28 (melanoma); assay: NCI 60-cell one-dose antiproliferative screen; assay type: cell-based, human; conditions: one dose 10 μM
[44] = system: SF-268 (CNS cancer); assay: NCI 60-cell one-dose antiproliferative screen; assay type: cell-based, human; conditions: one dose 10 μM
[45] = system: HT29 (colon cancer); assay: NCI 60-cell one-dose antiproliferative screen; assay type: cell-based, human; conditions: one dose 10 μM
[46] = system: MDA-MB-231/ATCC (breast cancer); assay: NCI 60-cell one-dose antiproliferative screen; assay type: cell-based, human; conditions: one dose 10 μM
[47] = system: NCI-H322M (NSC lung cancer); assay: NCI 60-cell one-dose antiproliferative screen; assay type: cell-based, human; conditions: one dose 10 μM
[48] = system: OVCAR-3 (ovarian cancer); assay: NCI 60-cell one-dose antiproliferative screen; assay type: cell-based, human; conditions: one dose 10 μM
[49] = system: COLO-205 (colon cancer); assay: NCI 60-cell one-dose antiproliferative screen; assay type: cell-based, human; conditions: one dose 10 μM
[50] = system: RPMI-8226 (leukemia); assay: NCI 60-cell one-dose antiproliferative screen; assay type: cell-based, human; conditions: one dose 10 μM
[51] = system: DU-145 (prostate cancer); assay: NCI 60-cell one-dose antiproliferative screen; assay type: cell-based, human; conditions: one dose 10 μM
[52] = system: A549/ATCC (NSC lung cancer); assay: NCI 60-cell one-dose antiproliferative screen; assay type: cell-based, human; conditions: one dose 10 μM
[53] = system: CAKI-1 (renal cancer); assay: NCI 60-cell one-dose antiproliferative screen; assay type: cell-based, human; conditions: one dose 10 μM
[54] = system: SNB-19 (CNS cancer); assay: NCI 60-cell one-dose antiproliferative screen; assay type: cell-based, human; conditions: one dose 10 μM
[55] = system: SF-295 (CNS cancer); assay: NCI 60-cell one-dose antiproliferative screen; assay type: cell-based, human; conditions: one dose 10 μM
[56] = system: caspase-9; assay: Caspase-9; assay type: cell-based, human; conditions: MCF7 cells, versus untreated control cells
[57] = MTT cytotoxicity assay, MCF10a; assay type: cell-based; conditions: human, MCF10a normal mammary epithelial cells

With `CC(=O)NNc1ccc2nnc(-c3ccccc3)n2n1` [Compound 6a, N′-(3-Phenyl-[1,2,4]triazolo[4,3-b]pyridazin-6-yl)acetohydrazide] the GI% [1] was “— (— GI% is below 15%)”, the GI% [2] was “— (— GI% is below 15%)” and the GI% [3] was “— (— GI% is below 15%)”. For the same molecule, the GI% [4] was “— (— GI% is below 15%)”, the GI% [5] was “— (— GI% is below 15%)” and the GI% [6] was “— (— GI% is below 15%)”. The GI% [7] was “— (— GI% is below 15%)”, the GI% [8] was “— (— GI% is below 15%)” and the GI% [9] was “— (— GI% is below 15%)”. The inhibition at 10 µM ([10]; Homo sapiens, 60 cell, read-out: Mean inhibition (mean GI%)) was < 15%, the “cytotoxic activity in words” value ([10]; NCI-60 panel, one dose 10 μM) was “demolished cytotoxicity” and the GI% [11] was “— (— GI% is below 15%)”. The GI% [12] was “— (— GI% is below 15%)”, the GI% [13] was “— (— GI% is below 15%)” and the GI% [14] was “— (— GI% is below 15%)”. For the same molecule, the GI% [15] was “— (— GI% is below 15%)”, the GI% [16] was “— (— GI% is below 15%)” and the GI% [17] was “— (— GI% is below 15%)”. For the same molecule, the GI% [18] was “— (— GI% is below 15%)”, the GI% [19] was “— (— GI% is below 15%)” and the GI% [20] was “— (— GI% is below 15%)”. The GI% [21] was “— (— GI% is below 15%)”, the GI% [22] was “— (— GI% is below 15%)” and the GI% [23] was “— (— GI% is below 15%)”. The GI% [24] was “— (— GI% is below 15%)”, the GI% [25] was “— (— GI% is below 15%)” and the GI% [26] was “— (— GI% is below 15%)”. The GI% [27] was “— (— GI% is below 15%)”, the GI% [28] was “— (— GI% is below 15%)” and the GI% [29] was “— (— GI% is below 15%)”. For the same molecule, the GI% [30] was “— (— GI% is below 15%)”, the GI% [31] was “— (— GI% is below 15%)” and the GI% [32] was “— (— GI% is below 15%)”. The GI% [33] was “— (— GI% is below 15%)”, the GI% [34] was “— (— GI% is below 15%)” and the GI% [35] was “— (— GI% is below 15%)”. The GI% [36] was “— (— GI% is below 15%)”, the GI% [37] was “— (— GI% is below 15%)” and the GI% [38] was “— (— GI% is below 15%)”. The GI% [39] was “— (— GI% is below 15%)”, the GI% [40] was “— (— GI% is below 15%)” and the GI% [41] was “— (— GI% is below 15%)”. The GI% [42] was “— (— GI% is below 15%)”, the GI% [43] was “— (— GI% is below 15%)” and the GI% [44] was “— (— GI% is below 15%)”. For the same molecule, the GI% [45] was “— (— GI% is below 15%)”, the GI% [46] was “— (— GI% is below 15%)” and the GI% [47] was “— (— GI% is below 15%)”. The GI% [48] was “— (— GI% is below 15%)”, the GI% [49] was “— (— GI% is below 15%)” and the GI% [50] was “— (— GI% is below 15%)”. For the same molecule, the GI% [51] was “— (— GI% is below 15%)”, the GI% [52] was “— (— GI% is below 15%)” and the GI% [53] was “— (— GI% is below 15%)”. The GI% [54] was “— (— GI% is below 15%)” and the GI% [55] was “— (— GI% is below 15%)”.
In the case of `CN[C@@H]1C[C@H]2O[C@@](C)([C@@H]1OC)n1c3ccccc3c3c4c(c5c6ccccc6n2c5c31)C(=O)NC4` [Staurosporine, reference compound], the “increase of apoptotic caspase-9 level” value [56] is reported as 7.19 fold and the IC50 at 72 h [57] is reported as 18.3 ± 8.03 µM.
